Patent US9050341B2, “Methods of treating drug resistant and other tumors by administering 6,7-dialkoxy quinazoline derivatives” (NATCO PHARMA LIMITED, priority 2009, dated 2015)

Tests used:
Assay in all cases: KinomeScan kinase profiling
Format in all cases: binding
MELK = molecular target: T1, MELK (Homo sapiens, UniProt Q14680)
T1 construct: host or cells: E. coli derived from BL21, infected with T7 phage
Text: (§1) The kinases were ABL1(F317L), ABL1(H396P), ABL1(Q252H), ABL1(Y253F), ADCK3, ADCK4, ALK, ARK5, AXL, BLK, BRSK2, CDK7, CIT, CLK4, CSNK1D, CSNK1E, DAPK1, DAPK3, DCAMKL3, DMPK, EGFR, EGFR(E746-A750DEL), EGFR(G719C), EGFR(G719S), EGFR(L747-E749DEL, A750P), EGFR(L747-S752 DEL, P753S), EGFR(L747-T751DEL, Sin), EGFR(L858R), EGFR(L861Q), EGFR(S752-I759DEL), EPHA5, EPHA6, ERBB2, ERBB4, ERK3, ERK4, FGR, FLT3(D835H), FLT3(D835Y), FLT3(ITD), FLT3(N841 I), FRK, GAK, GCN2(KIN.DOM.2, S808G), HCK, IRAK3, JAK1(KIN.DOM.1), KIT, KIT(D816V), KIT(V559D), KIT(V559D,T670I), LCK, LOK, LTK, LYN, MAP3K3, MAP4K4, MAP4K5, MET, MINK, MKNK1, MKNK2, MST4, MYLK2, PDGFRB, PIM3, PKN2, PRKD1, PRKD2, PRKD3, PRKG1, RIPK2, RPS6KA4(KIN.DOM.2), SIK2, SLK, SNARK, SRC, STK36, TNIK, TNNI3K, TYK2(KIN.DOM.2).
(§2) Kinase assays: Assays were performed as described in Fabian et al. (2005) Nature Biotechnology, vol. 23, p. 329. Kinase-tagged T7 phage strains were grown in parallel in 24 or 96-well blocks in an E. coli host derived from the BL21 strain. E. coli were grown to log-phase and infected with T7 phage from a frozen stock (multiplicity of infection ˜0.1) and incubated with shaking at 32° C. until lysis (˜90 minutes). The lysates were centrifuged and filtered to remove cell debris. […] The liganded beads were blocked with excess biotin and washed with blocking buffer (SeaBlock (Pierce), 1% BSA, 0.05% Tween 20, 1 mM DTT) to remove unbound ligand and to reduce non-specific phage binding.
(§3) Test compounds were prepared as 40× stocks in DMSO and diluted into the aqueous environment. 2.5% DMSO was added to control assays lacking a test compound. All reactions were performed in polystyrene 96-well plates that had been pretreated with blocking buffer in a final volume of 0.04 ml. […] The phage titer in the eluates was measured by quantitative PCR.

LTK = molecular target: T2, LTK (Homo sapiens, UniProt P29376)
T2 construct: host or cells: E. coli derived from BL21, infected with T7 phage
Text: as §1, §2, §3

FGFR4 = molecular target: T3, FGFR4 (Homo sapiens, UniProt P22455)
T3 construct: host or cells: E. coli host derived from BL21, infected with T7 phage
Text: as §1, §2, §3

AURKB = molecular target: T4, AURKB (Homo sapiens, UniProt Q96GD4)
T4 construct: purchased Ambit Biosciences Corp (KinomeScan); host or cells: E. coli host derived from the BL21 strain, T7 phage
Text: as §1, §2, §3

PIK3CA (E545K) = molecular target: T5, PIK3CA (E545K) (Homo sapiens, UniProt P42336, E545K)
T5 construct: host or cells: E. coli host derived from the BL21 strain, infected with T7 phage
Text: as §1, §2, §3

[1] = molecular target: T6, RPS6KA6 (Kin.Dom.-2-C-terminal) (Homo sapiens, UniProt Q9UK32)
T6 construct: RPS6KA6 (Kin.Dom.-2-C-terminal); host or cells: E. coli host derived from the BL21 strain, T7 phage lysate
Text: as §1, §2, §3

IRAK3 = molecular target: T7, IRAK3 (Homo sapiens, UniProt Q9Y616)
T7 construct: host or cells: T7 phage in E. coli host derived from BL21
Text: as §1, §2, §3

DMPK = molecular target: T8, DMPK (Homo sapiens, UniProt Q09013)
T8 construct: purchased Ambit Biosciences Corp (KinomeScan); host or cells: T7 phage in E. coli host derived from BL21
Text: as §1, §2, §3

MLK1 = molecular target: T9, MLK1 (Homo sapiens, UniProt P80192)
T9 construct: host or cells: T7 phage in E. coli host derived from BL21
Text: as §1, §2, §3

NEK6 = molecular target: T10, NEK6 (Homo sapiens, UniProt Q9HC98)
T10 construct: host or cells: T7 phage in E. coli host derived from BL21
Text: as §1, §2, §3

PRKD1 = molecular target: T11, PRKD1 (Homo sapiens, UniProt Q15139)
T11 construct: purchased Ambit Biosciences Corp (KinomeScan); host or cells: E. coli host derived from BL21, infected with T7 phage
Text: as §1, §2, §3

MEK3 = molecular target: T12, MEK3 (Homo sapiens, UniProt P46734)
T12 construct: host or cells: E. coli derived from BL21, infected with T7 phage
Text: as §1, §2, §3

PIK3CB = molecular target: T13, PIK3CB (Homo sapiens, UniProt P42338)
T13 construct: host or cells: E. coli host derived from the BL21 strain, infected with T7 phage
Text: as §1, §2, §3

CSNK2A2 = molecular target: T14, CSNK2A2 (Homo sapiens, UniProt P19784)
T14 construct: purchased Ambit Biosciences Corp (KinomeScan); host or cells: T7 phage in E. coli host derived from BL21
Text: as §1, §2, §3

FAK = molecular target: T15, FAK (Homo sapiens, UniProt Q05397)
T15 construct: host or cells: E. coli host derived from BL21, T7 phage lysate
Text: as §1, §2, §3

SLK = molecular target: T16, SLK (Homo sapiens, UniProt Q9H2G2)
T16 construct: host or cells: E. coli host derived from the BL21 strain, T7 phage lysate
Text: as §1, §2, §3

FLT3 = molecular target: T17, FLT3 (Homo sapiens, UniProt P36888)
T17 construct: host or cells: E. coli host derived from BL21, infected with T7 phage
Text: as §1, §2, §3

AURKC = molecular target: T18, AURKC (Homo sapiens, UniProt Q9UQB9)
T18 construct: purchased Ambit Biosciences Corp (KinomeScan); host or cells: E. coli host derived from the BL21 strain, T7 phage
Text: as §1, §2, §3

INSRR = molecular target: T19, INSRR (Homo sapiens, UniProt P14616)
T19 construct: host or cells: T7 phage in E. coli host derived from BL21
Text: as §1, §2, §3

CDK11 = molecular target: T20, CDK11 (Homo sapiens, UniProt Q9BWU1)
T20 construct: host or cells: T7 phage in E. coli (BL21-derived)
Text: as §1, §2, §3

SRPK2 = molecular target: T21, SRPK2 (Homo sapiens, UniProt P78362)
T21 construct: host or cells: E. coli host derived from the BL21 strain, T7 phage lysate
Text: as §1, §2, §3

WEE1 = molecular target: T22, WEE1 (Homo sapiens, UniProt P30291)
T22 construct: purchased Ambit Biosciences Corp (KinomeScan); host or cells: E. coli host derived from the BL21 strain (T7 phage lysate)
Text: as §1, §2, §3

T10 sequence (Q9HC98 whole entry): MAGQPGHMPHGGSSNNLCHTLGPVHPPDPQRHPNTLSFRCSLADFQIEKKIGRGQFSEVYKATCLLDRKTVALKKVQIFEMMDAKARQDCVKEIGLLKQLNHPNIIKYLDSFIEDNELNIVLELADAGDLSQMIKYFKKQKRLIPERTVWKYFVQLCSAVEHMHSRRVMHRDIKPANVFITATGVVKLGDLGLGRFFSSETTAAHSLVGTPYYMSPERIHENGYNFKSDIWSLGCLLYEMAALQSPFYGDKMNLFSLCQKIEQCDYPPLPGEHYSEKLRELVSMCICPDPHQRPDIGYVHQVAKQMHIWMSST
T8 sequence (Q09013 whole entry): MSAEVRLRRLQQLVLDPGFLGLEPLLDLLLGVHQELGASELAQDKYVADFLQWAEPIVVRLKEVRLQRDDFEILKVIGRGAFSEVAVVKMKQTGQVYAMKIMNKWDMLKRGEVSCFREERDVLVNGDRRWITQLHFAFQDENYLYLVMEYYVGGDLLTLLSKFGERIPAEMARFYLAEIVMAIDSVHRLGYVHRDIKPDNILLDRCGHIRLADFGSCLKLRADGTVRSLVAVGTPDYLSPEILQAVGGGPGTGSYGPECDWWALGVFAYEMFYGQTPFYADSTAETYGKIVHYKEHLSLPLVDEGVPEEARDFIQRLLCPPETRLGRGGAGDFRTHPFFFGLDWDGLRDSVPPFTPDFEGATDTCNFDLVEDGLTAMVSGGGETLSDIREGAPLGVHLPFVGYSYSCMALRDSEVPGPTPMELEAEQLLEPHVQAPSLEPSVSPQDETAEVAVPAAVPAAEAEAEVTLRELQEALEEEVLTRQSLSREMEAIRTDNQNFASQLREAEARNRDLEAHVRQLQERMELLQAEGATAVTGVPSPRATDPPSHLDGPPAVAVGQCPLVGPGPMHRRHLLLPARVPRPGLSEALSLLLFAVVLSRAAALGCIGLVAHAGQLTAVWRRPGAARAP
T1 sequence (Q14680 whole entry): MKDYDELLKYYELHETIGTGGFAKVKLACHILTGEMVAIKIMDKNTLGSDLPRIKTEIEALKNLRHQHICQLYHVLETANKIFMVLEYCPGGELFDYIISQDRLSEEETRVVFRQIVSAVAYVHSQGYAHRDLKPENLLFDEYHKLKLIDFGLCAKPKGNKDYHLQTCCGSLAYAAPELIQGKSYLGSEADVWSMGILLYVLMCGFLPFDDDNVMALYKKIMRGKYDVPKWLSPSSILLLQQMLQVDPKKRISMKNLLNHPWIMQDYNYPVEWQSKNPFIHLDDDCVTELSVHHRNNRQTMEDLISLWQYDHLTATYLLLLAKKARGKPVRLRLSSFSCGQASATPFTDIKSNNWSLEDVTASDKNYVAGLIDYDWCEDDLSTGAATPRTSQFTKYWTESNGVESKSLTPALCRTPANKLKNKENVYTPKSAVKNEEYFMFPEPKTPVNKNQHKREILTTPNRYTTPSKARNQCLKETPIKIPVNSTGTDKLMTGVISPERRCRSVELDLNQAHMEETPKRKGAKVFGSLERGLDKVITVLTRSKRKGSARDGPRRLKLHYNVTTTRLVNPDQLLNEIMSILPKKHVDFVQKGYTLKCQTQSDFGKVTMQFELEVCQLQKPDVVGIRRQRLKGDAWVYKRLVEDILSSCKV
T6 sequence (Q9UK32 426-683 limits assumed): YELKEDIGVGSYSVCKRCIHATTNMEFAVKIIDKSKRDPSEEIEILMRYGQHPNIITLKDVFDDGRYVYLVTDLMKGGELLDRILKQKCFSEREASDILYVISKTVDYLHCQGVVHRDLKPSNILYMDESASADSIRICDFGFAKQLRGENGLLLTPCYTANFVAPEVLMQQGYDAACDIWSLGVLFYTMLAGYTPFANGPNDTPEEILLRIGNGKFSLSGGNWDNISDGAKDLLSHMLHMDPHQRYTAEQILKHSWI
T11 sequence (Q15139 whole entry): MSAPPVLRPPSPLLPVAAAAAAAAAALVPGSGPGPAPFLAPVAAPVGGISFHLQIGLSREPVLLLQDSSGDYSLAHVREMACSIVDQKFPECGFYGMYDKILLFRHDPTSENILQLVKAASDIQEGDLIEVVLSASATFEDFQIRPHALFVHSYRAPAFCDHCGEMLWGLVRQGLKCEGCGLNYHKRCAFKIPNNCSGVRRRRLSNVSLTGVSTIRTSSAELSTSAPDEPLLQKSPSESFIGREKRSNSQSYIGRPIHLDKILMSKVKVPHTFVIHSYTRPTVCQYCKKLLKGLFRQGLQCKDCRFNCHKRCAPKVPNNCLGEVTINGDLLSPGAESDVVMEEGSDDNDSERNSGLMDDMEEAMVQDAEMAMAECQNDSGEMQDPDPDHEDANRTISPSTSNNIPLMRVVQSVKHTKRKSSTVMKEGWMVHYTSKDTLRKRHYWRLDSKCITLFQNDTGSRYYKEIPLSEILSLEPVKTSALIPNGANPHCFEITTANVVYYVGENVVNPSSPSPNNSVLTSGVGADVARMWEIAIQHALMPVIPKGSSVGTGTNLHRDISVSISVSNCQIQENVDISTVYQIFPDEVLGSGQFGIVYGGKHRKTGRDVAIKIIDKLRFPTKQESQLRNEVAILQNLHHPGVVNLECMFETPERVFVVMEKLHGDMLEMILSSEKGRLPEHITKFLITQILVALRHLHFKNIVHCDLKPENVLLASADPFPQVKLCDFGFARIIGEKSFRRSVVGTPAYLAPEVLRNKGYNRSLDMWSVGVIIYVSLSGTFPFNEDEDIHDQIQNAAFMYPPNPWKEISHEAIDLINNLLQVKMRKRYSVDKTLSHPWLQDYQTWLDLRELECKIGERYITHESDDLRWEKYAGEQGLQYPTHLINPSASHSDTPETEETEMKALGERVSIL
T17 sequence (P36888 27-993): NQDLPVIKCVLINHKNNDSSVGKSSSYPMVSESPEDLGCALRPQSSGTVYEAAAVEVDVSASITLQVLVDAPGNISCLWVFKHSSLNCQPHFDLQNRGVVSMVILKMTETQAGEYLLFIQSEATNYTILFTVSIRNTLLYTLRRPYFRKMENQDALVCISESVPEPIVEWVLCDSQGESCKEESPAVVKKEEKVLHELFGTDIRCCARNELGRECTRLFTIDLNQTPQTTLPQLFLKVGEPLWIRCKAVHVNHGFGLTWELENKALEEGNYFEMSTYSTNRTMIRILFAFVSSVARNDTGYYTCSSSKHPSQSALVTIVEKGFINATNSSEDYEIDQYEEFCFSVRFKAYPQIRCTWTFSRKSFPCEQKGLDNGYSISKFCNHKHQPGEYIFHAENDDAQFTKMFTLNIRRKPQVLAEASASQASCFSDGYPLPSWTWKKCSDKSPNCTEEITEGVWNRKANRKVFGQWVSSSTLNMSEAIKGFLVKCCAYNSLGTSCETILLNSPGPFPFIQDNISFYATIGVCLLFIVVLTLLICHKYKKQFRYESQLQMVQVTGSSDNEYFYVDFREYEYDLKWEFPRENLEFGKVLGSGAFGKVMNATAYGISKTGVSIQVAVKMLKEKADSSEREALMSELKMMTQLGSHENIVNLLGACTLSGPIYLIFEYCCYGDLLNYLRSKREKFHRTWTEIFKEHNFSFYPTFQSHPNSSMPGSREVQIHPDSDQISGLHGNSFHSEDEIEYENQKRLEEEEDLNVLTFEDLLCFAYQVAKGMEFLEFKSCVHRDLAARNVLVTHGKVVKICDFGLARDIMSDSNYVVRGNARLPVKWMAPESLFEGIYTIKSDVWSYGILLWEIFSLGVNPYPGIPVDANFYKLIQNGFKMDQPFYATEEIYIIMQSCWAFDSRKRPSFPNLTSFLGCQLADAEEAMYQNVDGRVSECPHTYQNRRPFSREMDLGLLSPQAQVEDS
T5 sequence (P42336 whole entry E545K): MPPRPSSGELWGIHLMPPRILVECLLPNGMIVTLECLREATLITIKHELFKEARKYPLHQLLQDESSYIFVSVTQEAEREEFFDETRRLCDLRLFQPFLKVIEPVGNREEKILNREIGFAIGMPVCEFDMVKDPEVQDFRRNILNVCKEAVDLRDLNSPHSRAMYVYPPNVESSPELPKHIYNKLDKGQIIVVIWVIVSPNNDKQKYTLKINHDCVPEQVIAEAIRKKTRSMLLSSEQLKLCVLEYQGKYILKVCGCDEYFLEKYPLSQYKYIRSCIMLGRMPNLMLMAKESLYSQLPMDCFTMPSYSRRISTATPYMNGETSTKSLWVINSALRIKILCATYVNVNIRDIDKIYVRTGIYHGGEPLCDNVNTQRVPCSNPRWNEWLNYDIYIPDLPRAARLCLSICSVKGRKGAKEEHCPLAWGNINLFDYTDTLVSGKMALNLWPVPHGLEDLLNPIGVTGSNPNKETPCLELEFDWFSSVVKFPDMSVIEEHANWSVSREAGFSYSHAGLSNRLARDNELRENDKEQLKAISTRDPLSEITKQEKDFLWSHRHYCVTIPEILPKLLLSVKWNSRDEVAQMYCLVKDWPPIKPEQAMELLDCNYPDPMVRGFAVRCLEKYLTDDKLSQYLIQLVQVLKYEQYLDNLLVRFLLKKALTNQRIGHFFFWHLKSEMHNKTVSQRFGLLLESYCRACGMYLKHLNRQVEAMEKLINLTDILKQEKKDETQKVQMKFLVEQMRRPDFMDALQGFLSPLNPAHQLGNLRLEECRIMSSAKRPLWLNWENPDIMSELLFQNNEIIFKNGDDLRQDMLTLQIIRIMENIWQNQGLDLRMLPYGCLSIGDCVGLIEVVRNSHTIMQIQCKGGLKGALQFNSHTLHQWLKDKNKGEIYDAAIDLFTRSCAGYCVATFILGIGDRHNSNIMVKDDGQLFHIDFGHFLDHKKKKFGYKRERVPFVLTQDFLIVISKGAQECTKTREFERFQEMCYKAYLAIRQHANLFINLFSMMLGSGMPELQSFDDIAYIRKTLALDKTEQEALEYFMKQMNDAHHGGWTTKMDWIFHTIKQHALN

Q: With C#Cc1cccc(Nc2ncnc3cc(OC)c(OCCCN4CCOCC4)cc23)c1 [NRC-2694, N-(3-ethylnylphenyl)-7-methoxy-6-[3-(4-morpholinyl)propoxy]-4-quinazolinamine] as the compound, how does the “% Ctrl @ 10000 nM” value (MELK) read?
A: The value was 57 % Ctrl.

Q: And the “% Ctrl @ 10000 nM” value (LTK)?
A: The value was 3.8 % Ctrl.

Q: What about the “% Ctrl @ 10000 nM” value (FGFR4) of the same compound?
A: Its value is 69 % Ctrl.

Q: What about the “% Ctrl @ 10000 nM” value (AURKB) of the same compound?
A: The value was 56 % Ctrl.

Q: And the “% Ctrl @ 10000 nM” value (PIK3CA (E545K))?
A: Its value is 100 % Ctrl.

Q: And the “% Ctrl @ 10000 nM” value [1]?
A: Its value is 55 % Ctrl.

Q: And the “% Ctrl @ 10000 nM” value (IRAK3)?
A: Its value is 25 % Ctrl.

Q: What about the “% Ctrl @ 10000 nM” value (DMPK) of the same compound?
A: The value was 6.8 % Ctrl.

Q: And the “% Ctrl @ 10000 nM” value (MLK1)?
A: Its value is 100 % Ctrl.

Q: What about the “% Ctrl @ 10000 nM” value (NEK6) of the same compound?
A: The value was 94 % Ctrl.

Q: And the “% Ctrl @ 10000 nM” value (PRKD1)?
A: Its value is 9.6 % Ctrl.

Q: And the “% Ctrl @ 10000 nM” value (MEK3)?
A: The value was 100 % Ctrl.

Q: What about the “% Ctrl @ 10000 nM” value (PIK3CB) of the same compound?
A: The value was 100 % Ctrl.

Q: And the “% Ctrl @ 10000 nM” value (CSNK2A2)?
A: Its value is 52 % Ctrl.

Q: What about the “% Ctrl @ 10000 nM” value (FAK) of the same compound?
A: Its value is 85 % Ctrl.

Q: What about the “% Ctrl @ 10000 nM” value (SLK) of the same compound?
A: Its value is 0.3 % Ctrl.

Q: What about the “% Ctrl @ 10000 nM” value (FLT3) of the same compound?
A: Its value is 49 % Ctrl.

Q: What about the “% Ctrl @ 10000 nM” value (AURKC) of the same compound?
A: The value was 47 % Ctrl.

Q: What about the “% Ctrl @ 10000 nM” value (INSRR) of the same compound?
A: The value was 79 % Ctrl.

Q: And the “% Ctrl @ 10000 nM” value (CDK11)?
A: The value was 87 % Ctrl.

Q: And the “% Ctrl @ 10000 nM” value (SRPK2)?
A: Its value is 73 % Ctrl.

Q: And the “% Ctrl @ 10000 nM” value (WEE1)?
A: Its value is 74 % Ctrl.
